Data as given in patent US20250042909A1, “POLYMORPH FORMS OF A 5H-PYRROLO[2,3-b]PYRAZINE DERIVATIVE, METHODS OF PREPARATION, AND USES THEREFORE” (BeiGene, Ltd., priority 2022, published 2025).
Where a name gives a salt, the structure may show the parent alone. Blank lines part the entries; values can stand above or below the compound they belong to.

Key:
[1] = Pharmacokinetic studies in mice; type: in vivo, male CD-1 mice; conditions: for AUC(0-t): male, CD-1, mouse, plasma, read-out: AUC0-24h
Procedure: Compound A free form amorphous (115.7 mg) was prepared by lyophilizing a suspension of compound A free form in water with a minimum amount of acetonitrile.
(§1) Pharmacokinetic studies of Compound A were conducted in male CD-1 mice (Vital River, 8 weeks, 3 animals per dosing route) following Institutional Animal Care and Use Committee guidelines. Intravenous administration was formulated as 0.20 mg/mL solution in N,N-dimethylacetamide:30% solutol HS-15(w/v): saline=20:20:60 (V:V:V). Oral administration was formulated as 1.0 mg/mL suspension in 0.500 methyl cellulose. Blood samples were collected over a 24-h period post-dose. Plasma was isolated and processed with the below protocol: To an aliquot of 10 μL plasma was added 200 μL ACN containing 5 ng/mL terfenadine as internal standard. The mixture was vortexed for 1 m and centrifuged at 4000 rpm for 10 min. An aliquot of 50 μL supernatant was diluted with 150 μL acetonitrile/water. The concentration of Compound A was determined by LC-MS-MS. Non-compartmental pharmacokinetic analysis was performed on the concentration-time data.

[2] = Pharmacokinetic studies in rats; type: in vivo, male SD rats; conditions: for AUC(0-t): read-out: AUC0-24h
Procedure: as §1, with “male SD rats” for “male CD-1 mice”, “as 1.0” for “as 0.20”, “solutol HS-15(w/v):saline=20:20:60” for “solutol HS-15(w/v): saline=20:20:60”, “in 0.5%” for “in 0.500”, “1 min” for “1 m”

[3] = Solid-state chemical and physical stability under stress and storage conditions; type: physicochemical; conditions: for Chemical and physical stability: 25° C./92% RH open, 40° C./75% RH open, 60° C. tight container, over 1 week
Procedure: Solid form stability of freeform Type A was investigated in process solvents EtOH/H2O and MeOH/H2O. […] Purity change in all the rest conditions (40° C./75% RH/open for 2 weeks, 60° C./sealed for 10 days, RT/92.5% RH/open for 10 days, 25° C./60% RH/open for 8 weeks and UV (290 wμ/cm2) for 3 days) was less than 0.4 area %. […]

[4] = Dynamic vapor sorption (DVS) hygroscopicity test; type: physicochemical; conditions: for Hygroscopicity: DVS at 25° C.
Procedure: Dynamic vapor sorption (DVS) analysis was conducted using SMS DVS Intrinsic using one of below methods:
(§2) Sample was weighted to the microbalance. The relative humidity was set to 0% with N2 flow of 200 sccm. The equilibrium was assumed when the weight change of the sample was <0.001 wt % in 10 min or by a maximum equilibration time of 180 minutes. […] Between two equilibrium steps, dm/dt is 0.002%/min. At each equilibrium step, the equilibrium was assumed when the weight change of the sample was <0.001 wt % in 10 min or by a maximum equilibration time of 180 minutes.
as §2, with “the closes decile of ambient humidity” for “0%”
as §2, with “40%” for “0%”, “60” for “10”, “360” for “180”

[5] = Solid form stability in process solvents; type: physicochemical; conditions: MeOH at 50° C.
Procedure: Solid form stability of freeform Type A was investigated in process solvents EtOH/H2O and MeOH/H2O. […] Purity change in all the rest conditions (40° C./75% RH/open for 2 weeks, 60° C./sealed for 10 days, RT/92.5% RH/open for 10 days, 25° C./60% RH/open for 8 weeks and UV (290 wμ/cm2) for 3 days) was less than 0.4 area %.

[6] = PO Dose 10 mpk calculated as free form, 10 mg/kg
[7] = male, SD, rat, plasma, po, 10 mg/kg, PO Dose 10 mpk calculated as free form

SMILES: Cc1cc(-c2c[nH]c3ncc(-c4cc(C)c5c(c4)CCN(C)C5)nc23)ccc1C(=O)N(C)C [Citrate Type B, 4-[2-(2,8-dimethyl-1,2,3,4-tetrahydroisoquinolin-6-yl)-5H-pyrrolo[2,3-b]pyrazin-7-yl]-N,N,2-trimethylbenzamide]
- Form conversion on storage ([3]; ambient and open conditions (about 25° C. and about 80% RH) over 1 week): converted to Type A

SMILES: Cc1cc(-c2c[nH]c3ncc(-c4cc(C)c5c(c4)CCN(C)C5)nc23)ccc1C(=O)N(C)C [Compound A free form amorphous, 4-[2-(2,8-dimethyl-1,2,3,4-tetrahydroisoquinolin-6-yl)-5H-pyrrolo[2,3-b]pyrazin-7-yl]-N,N,2-trimethylbenzamide]
- Cmax [1, 6]: 177 ng/mL
- F % [1, 6]: 55.2%
- t1/2 [1, 6]: 3.63 h
- tmax [1, 6]: 3.50 h
- AUC(0-t) ([1]; iv, 1 mg/kg, IV Dose 1 mpk calculated as free form): 344 ng·h/mL
- AUC(0-t) ([1]; po, 10 mg/kg, PO Dose 10 mpk calculated as free form): 1900 ng·h/mL
- half-life ([2]; male, SD, rat, plasma, 10 mg/kg, PO Dose 10 mpk calculated as free form): 243 min
- AUC(0-t) ([2]; male, SD, rat, plasma, iv, 1 mg/kg, IV Dose 1 mpk calculated as free form): 656 ng·h/mL
- bioavailability [2, 7]: 17.2%
- AUC(0-t) [2, 7]: 1120 ng·h/mL
- Cmax ([2]; male, SD, rat, plasma, po, 10 mg/kg, PO Dose 10 mpk calculated as free form, read-out: Cmax): 235 ng/mL
- tmax ([2]; male, SD, rat, plasma, po, 10 mg/kg, PO Dose 10 mpk calculated as free form, read-out: tmax): 2 h

The next lines start with the values.

- AUC0-24h [1, 6]: 2990 ng·h/mL
- Cmax [1, 6]: 640 ng/mL
- F % [1, 6]: 86.9%
- t1/2 [1, 6]: 7.95 h
- tmax [1, 6]: 1.50 h
- AUC0-24h [2, 6]: 1603 ng·h/mL
- Cmax [2, 6]: 445 ng/mL
- F % [2, 6]: 24.4%
- tmax [2, 6]: 2.67 h
- Long-term stability ([3]; 3-month experiment): excellent long-term stability
- Chemical and physical stability [3]: chemically and physically stable
- Form change after the DVS test [4]: No form change
- Hygroscopicity ([4]; listed as citrate salt type A): slightly hygroscopic
- Water absorbed (DVS) ([4]; from 0% RH to 95% RH at 25° C.): about 0.7%
SMILES: Cc1cc(-c2c[nH]c3ncc(-c4cc(C)c5c(c4)CCN(C)C5)nc23)ccc1C(=O)N(C)C [Compound A citrate type A, 4-[2-(2,8-dimethyl-1,2,3,4-tetrahydroisoquinolin-6-yl)-5H-pyrrolo[2,3-b]pyrazin-7-yl]-N,N,2-trimethylbenzamide]

- Chemical and physical stability [3]: chemically and physically stable
- Form change after the DVS test [4]: No form change
- Hygroscopicity ([4]; listed as L-malate salt Pattern A): hygroscopic
- Water absorbed (DVS) ([4]; from 40% RH to 95% RH at 25° C.): about 7.9%
SMILES: Cc1cc(-c2c[nH]c3ncc(-c4cc(C)c5c(c4)CCN(C)C5)nc23)ccc1C(=O)N(C)C [L-malate salt Type A, 4-[2-(2,8-dimethyl-1,2,3,4-tetrahydroisoquinolin-6-yl)-5H-pyrrolo[2,3-b]pyrazin-7-yl]-N,N,2-trimethylbenzamide]

- HPLC area purity change ([3]; 40° C./75% RH/open 2 weeks, 60° C./sealed 10 days, RT/92.5% RH/open 10 days, 25° C./60% RH/open 8 weeks, UV 3 days): less than 0.4 area %
- HPLC area purity decrease ([3]; Vis (10000 Lux) for 5 days): ~1.2 area %
- Form change (physical stability) ([3]; under the laboratory conditions): No form change
- Form change in process solvent [5]: No form change
SMILES: Cc1cc(-c2c[nH]c3ncc(-c4cc(C)c5c(c4)CCN(C)C5)nc23)ccc1C(=O)N(C)C [freeform Type A, 4-[2-(2,8-dimethyl-1,2,3,4-tetrahydroisoquinolin-6-yl)-5H-pyrrolo[2,3-b]pyrazin-7-yl]-N,N,2-trimethylbenzamide]
